Assay in all cases: NCI-60 cell line screen, 48 h
Experiment [1] has as its system HCT-15 colon.
The subject of experiment [2] is EKVX NSCLC.
Experiment [3] deals with A498 renal.
The test system of experiment [4] is U251 CNS.
In experiment [5] the test system is 786-0 renal.
The test system of experiment [6] is NCI-H460 lung.
Experiment [7] has as its system SF-268 CNS.
In experiment [8] the test system is BT-549 breast.
For experiment [9], the system named is OVCAR-8 ovarian.
The test system of experiment [10] is NCI-H23 lung.

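Step 1: Grow cells in 96-well plates. Step 2: Expose to compound for 48 hours at 5 concentrations. Step 3: Interpolate endpoints linearly; if unreached, use highest concentration. The concentration for 50% growth inhibition is given as GI50. The concentration for full growth arrest is given as TGI.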

Take `CCn1cc(C(=O)N/N=C/c2cccc(F)c2)c(=O)c2cc(F)c(N3CCNC(C)C3)c(F)c21` (stereo not given): the GI50 was 1460 nM in [1]; 1600 nM in experiment [2]; 1280 nM in experiment [3]; 1610 nM in experiment [4]; 1630 nM in [5]; 1680 nM in [6]. Also, the GI50 is 1800 nM in [7], 1620 nM in [8], 1760 nM in experiment [9] and 1830 nM in experiment [10]. The TGI in experiment [1] was found to be 2840 nM; in experiment [2] it was 3060 nM; in experiment [3], 6360 nM; in experiment [4] it was 3030 nM; in [5], 3160 nM; in experiment [6], 3140 nM. For the same molecule, the TGI in experiment [7] came to 3520 nM; in experiment [8], 3050 nM; in experiment [9], 3320 nM; in [10], 3450 nM.

These data come from PubChem BioAssay (NCI).
